PubChem BioAssay AID1745844 (Carcinogenic Potency Database (CPDB), 2022)

Test system: rodent lifetime carcinogenesis bioassay, tumor incidence TD50
Assay: chronic cancer bioassays in animals – CPDB, compiled studies (AID 1745844)
Conditions: rat, in drinking water

COc1cc(-c2ccc(N=Nc3c(S(=O)(=O)O)cc4cc(S(=O)(=O)O)cc(N)c4c3O)c(OC)c2)ccc1N=Nc1c(S(=O)(=O)O)cc2cc(S(=O)(=O)O)cc(N)c2c1O
TD50 (strain Fischer 344, females, site: Zymbal's gland, lesion: adenoma + carcinoma, dosed 96 weeks, study length 97 weeks): 104 mg/kg/day
TD50 (strain Fischer 344, females, site: Zymbal's gland, lesion: adenoma, dosed 96 weeks, study length 97 weeks): 321 mg/kg/day
TD50 (strain Fischer 344, females, site: Zymbal's gland, lesion: carcinoma, dosed 96 weeks, study length 97 weeks): 150 mg/kg/day
TD50 (strain Fischer 344, females, site: any site (literature study), lesion: several types, types named in the paper, dosed 96 weeks, study length 97 weeks): 20.4 mg/kg/day
TD50 (strain Fischer 344, females, site: clitoral gland, lesion: adenoma + adenoma, bilateral + carcinoma + carcinoma, bilateral, dosed 96 weeks, study length 97 weeks): 46.2 mg/kg/day
TD50 (strain Fischer 344, females, site: clitoral gland, lesion: adenoma + adenoma, bilateral, dosed 96 weeks, study length 97 weeks): 90.1 mg/kg/day
TD50 (strain Fischer 344, females, site: clitoral gland, lesion: carcinoma + carcinoma, bilateral, dosed 96 weeks, study length 97 weeks): 107 mg/kg/day
TD50 (strain Fischer 344, females, site: colon, ascending + clitoral gland + colon + colon, descending + duodenum + jejunum + liver + multiple organs + palate + skin + tongue + uterus, lesion: adenomatous polyp + adenoma + adenoma, bilateral + carcinoma + carcinoma, bilateral + mucinous cystadenocarcinoma + adenocarcinoma + h, dosed 96 weeks, study length 97 weeks): 21.3 mg/kg/day
TD50 (strain Fischer 344, females, site: colon, ascending + colon + colon, descending, lesion: adenomatous polyp, dosed 96 weeks, study length 97 weeks): 491 mg/kg/day
TD50 (strain Fischer 344, females, site: duodenum + jejunum, lesion: mucinous cystadenocarcinoma + adenocarcinoma, dosed 96 weeks, study length 97 weeks): 997 mg/kg/day
TD50 (strain Fischer 344, females, site: jejunum, lesion: adenocarcinoma + mucinous cystadenocarcinoma, dosed 96 weeks, study length 97 weeks): 1180 mg/kg/day
TD50 (strain Fischer 344, females, site: liver, lesion: hepatocellular adenoma + hepatocellular carcinoma + neoplastic nodule, dosed 96 weeks, study length 97 weeks): 394 mg/kg/day
TD50 (strain Fischer 344, females, site: liver, lesion: hepatocellular carcinoma + neoplastic nodule, dosed 96 weeks, study length 97 weeks): 394 mg/kg/day
TD50 (strain Fischer 344, females, site: liver, lesion: neoplastic nodule, dosed 96 weeks, study length 97 weeks): 429 mg/kg/day
TD50 (strain Fischer 344, females, site: multiple organs, lesion: mononuclear-cell leukemia, dosed 96 weeks, study length 97 weeks): 50 mg/kg/day
TD50 (strain Fischer 344, females, site: palate + tongue, lesion: squamous-cell carcinoma + squamous-cell papilloma, dosed 96 weeks, study length 97 weeks): 81 mg/kg/day
TD50 (strain Fischer 344, females, site: palate + tongue, lesion: squamous-cell carcinoma, dosed 96 weeks, study length 97 weeks): 208 mg/kg/day
TD50 (strain Fischer 344, females, site: palate + tongue, lesion: squamous-cell papilloma, dosed 96 weeks, study length 97 weeks): 132 mg/kg/day
TD50 (strain Fischer 344, females, site: palate, lesion: squamous-cell carcinoma, dosed 96 weeks, study length 97 weeks): 456 mg/kg/day
TD50 (strain Fischer 344, females, site: palate, lesion: squamous-cell papilloma, dosed 96 weeks, study length 97 weeks): 157 mg/kg/day
TD50 (strain Fischer 344, females, site: skin, lesion: squamous-cell carcinoma + squamous-cell papilloma, dosed 96 weeks, study length 97 weeks): 158 mg/kg/day
TD50 (strain Fischer 344, females, site: skin, lesion: squamous-cell papilloma, dosed 96 weeks, study length 97 weeks): 174 mg/kg/day
TD50 (strain Fischer 344, females, site: tongue, lesion: squamous-cell carcinoma + squamous-cell papilloma, dosed 96 weeks, study length 97 weeks): 238 mg/kg/day
TD50 (strain Fischer 344, females, site: tongue, lesion: squamous-cell carcinoma, dosed 96 weeks, study length 97 weeks): 384 mg/kg/day
TD50 (strain Fischer 344, females, site: uterus, lesion: adenocarcinoma + adenoma, dosed 96 weeks, study length 97 weeks): 493 mg/kg/day
TD50 (strain Fischer 344, females, site: uterus, lesion: endometrial stromal polyp + endometrial stromal sarcoma, dosed 96 weeks, study length 97 weeks): 122 mg/kg/day
TD50 (strain Fischer 344, females, site: uterus, lesion: endometrial stromal polyp, dosed 96 weeks, study length 97 weeks): 132 mg/kg/day
TD50 (strain Fischer 344, males, site: Zymbal's gland, lesion: adenoma + carcinoma, dosed 97 weeks, study length 97 weeks): 89.2 mg/kg/day
TD50 (strain Fischer 344, males, site: Zymbal's gland, lesion: adenoma, dosed 97 weeks, study length 97 weeks): 237 mg/kg/day
TD50 (strain Fischer 344, males, site: Zymbal's gland, lesion: carcinoma, dosed 97 weeks, study length 97 weeks): 132 mg/kg/day
TD50 (strain Fischer 344, males, site: adrenal medulla, lesion: pheochromocytoma benign, bilateral + pheochromocytoma, benign, dosed 97 weeks, study length 97 weeks): 39.8 mg/kg/day
TD50 (strain Fischer 344, males, site: adrenal medulla, lesion: pheochromocytoma benign, bilateral + pheochromocytoma, complex + pheochromocytoma, malignant + pheochromocytoma, benign, dosed 97 weeks, study length 97 weeks): 36.6 mg/kg/day
TD50 (strain Fischer 344, males, site: any site (literature study), lesion: several types, types named in the paper, dosed 97 weeks, study length 97 weeks): 12 mg/kg/day
TD50 (strain Fischer 344, males, site: brain, medulla + cerebrum, lesion: astrocytoma, malignant, dosed 97 weeks, study length 97 weeks): 600 mg/kg/day
TD50 (strain Fischer 344, males, site: colon, ascending + colon + colon, descending + jejunum + liver + palate + pharynx + preputial gland + skin + tongue + Zymbal's gland, lesion: adenomatous polyp + adenocarcinoma + mucinous cystadenocarcinoma + hepatocellular carcinoma + neoplastic nodule + squamous-cell pa, dosed 97 weeks, study length 97 weeks): 11.8 mg/kg/day
TD50 (strain Fischer 344, males, site: colon, ascending + colon + colon, descending, lesion: adenomatous polyp + adenocarcinoma, dosed 97 weeks, study length 97 weeks): 162 mg/kg/day
TD50 (strain Fischer 344, males, site: colon, ascending + colon + colon, descending, lesion: adenomatous polyp, dosed 97 weeks, study length 97 weeks): 310 mg/kg/day
TD50 (strain Fischer 344, males, site: colon, lesion: adenocarcinoma, dosed 97 weeks, study length 97 weeks): 355 mg/kg/day
TD50 (strain Fischer 344, males, site: jejunum, lesion: adenocarcinoma + adenomatous polyp + mucinous cystadenocarcinoma, dosed 97 weeks, study length 97 weeks): 1630 mg/kg/day
TD50 (strain Fischer 344, males, site: liver, lesion: hepatocellular adenoma + hepatocellular carcinoma + neoplastic nodule, dosed 97 weeks, study length 97 weeks): 55.2 mg/kg/day
TD50 (strain Fischer 344, males, site: liver, lesion: hepatocellular carcinoma + neoplastic nodule, dosed 97 weeks, study length 97 weeks): 55.2 mg/kg/day
TD50 (strain Fischer 344, males, site: liver, lesion: hepatocellular carcinoma, dosed 97 weeks, study length 97 weeks): 375 mg/kg/day
TD50 (strain Fischer 344, males, site: liver, lesion: neoplastic nodule, dosed 97 weeks, study length 97 weeks): 65.3 mg/kg/day
TD50 (strain Fischer 344, males, site: multiple organs, lesion: mononuclear-cell leukemia, dosed 97 weeks, study length 97 weeks): 23 mg/kg/day
TD50 (strain Fischer 344, males, site: palate + pharynx + tongue, lesion: squamous-cell papilloma + squamous-cell carcinoma, dosed 97 weeks, study length 97 weeks): 39.3 mg/kg/day
TD50 (strain Fischer 344, males, site: palate + tongue, lesion: squamous-cell papilloma, dosed 97 weeks, study length 97 weeks): 43.6 mg/kg/day
TD50 (strain Fischer 344, males, site: palate, lesion: squamous-cell papilloma, dosed 97 weeks, study length 97 weeks): 47 mg/kg/day
TD50 (strain Fischer 344, males, site: pharynx + tongue, lesion: squamous-cell carcinoma, dosed 97 weeks, study length 97 weeks): 361 mg/kg/day
TD50 (strain Fischer 344, males, site: pharynx, lesion: squamous-cell carcinoma, dosed 97 weeks, study length 97 weeks): 466 mg/kg/day
TD50 (strain Fischer 344, males, site: preputial gland, lesion: adenoma + adenoma, bilateral + carcinoma + carcinoma, bilateral, dosed 97 weeks, study length 97 weeks): 55.3 mg/kg/day
TD50 (strain Fischer 344, males, site: preputial gland, lesion: adenoma + adenoma, bilateral, dosed 97 weeks, study length 97 weeks): 77.1 mg/kg/day
TD50 (strain Fischer 344, males, site: preputial gland, lesion: carcinoma + carcinoma, bilateral, dosed 97 weeks, study length 97 weeks): 207 mg/kg/day
TD50 (strain Fischer 344, males, site: skin, lesion: basal-cell adenoma + basal-cell carcinoma + sebaceous adenoma, dosed 97 weeks, study length 97 weeks): 18.1 mg/kg/day
TD50 (strain Fischer 344, males, site: skin, lesion: basal-cell adenoma + basal-cell carcinoma, dosed 97 weeks, study length 97 weeks): 19.6 mg/kg/day
TD50 (strain Fischer 344, males, site: skin, lesion: basal-cell adenoma, dosed 97 weeks, study length 97 weeks): 21.6 mg/kg/day
TD50 (strain Fischer 344, males, site: skin, lesion: basal-cell carcinoma, dosed 97 weeks, study length 97 weeks): 101 mg/kg/day
TD50 (strain Fischer 344, males, site: skin, lesion: keratoacanthoma, dosed 97 weeks, study length 97 weeks): 152 mg/kg/day
TD50 (strain Fischer 344, males, site: skin, lesion: sebaceous adenoma, dosed 97 weeks, study length 97 weeks): 108 mg/kg/day
TD50 (strain Fischer 344, males, site: skin, lesion: squamous-cell carcinoma + squamous-cell papilloma, dosed 97 weeks, study length 97 weeks): 51 mg/kg/day
TD50 (strain Fischer 344, males, site: skin, lesion: squamous-cell carcinoma, dosed 97 weeks, study length 97 weeks): 89.7 mg/kg/day
TD50 (strain Fischer 344, males, site: skin, lesion: squamous-cell papilloma, dosed 97 weeks, study length 97 weeks): 92.8 mg/kg/day
TD50 (strain Fischer 344, males, site: subcutaneous tissue, lesion: fibroma + sarcoma, dosed 97 weeks, study length 97 weeks): 131 mg/kg/day
TD50 (strain Fischer 344, males, site: subcutaneous tissue, lesion: fibroma, dosed 97 weeks, study length 97 weeks): 150 mg/kg/day
TD50 (strain Fischer 344, males, site: testis, lesion: interstitial-cell adenoma, bilateral + interstitial-cell adenoma, dosed 97 weeks, study length 97 weeks): 12.9 mg/kg/day
TD50 (strain Fischer 344, males, site: thyroid gland, lesion: c-cell adenoma + c-cell adenoma, bilateral, dosed 97 weeks, study length 97 weeks): 143 mg/kg/day
TD50 (strain Fischer 344, males, site: thyroid gland, lesion: c-cell adenoma + c-cell carcinoma, bilateral + c-cell carcinoma + c-cell adenoma, bilateral, dosed 97 weeks, study length 97 weeks): 116 mg/kg/day
TD50 (strain Fischer 344, males, site: thyroid gland, lesion: follicular-cell adenoma + follicular-cell carcinoma, dosed 97 weeks, study length 97 weeks): 103 mg/kg/day
TD50 (strain Fischer 344, males, site: thyroid gland, lesion: follicular-cell adenoma, dosed 97 weeks, study length 97 weeks): 49.7 mg/kg/day
TD50 (strain Fischer 344, males, site: thyroid gland, lesion: follicular-cell carcinoma, dosed 97 weeks, study length 97 weeks): 331 mg/kg/day
TD50 (strain Fischer 344, males, site: tongue, lesion: squamous-cell carcinoma + squamous-cell papilloma, dosed 97 weeks, study length 97 weeks): 371 mg/kg/day

CCCC1O[C@@H]2C[C@H]3[C@@H]4CCC5=CC(=O)C=C[C@]5(C)[C@H]4[C@@H](O)C[C@]3(C)[C@]2(C(=O)CO)O1 (stereo partly drawn)
TD50 (strain Charles River CD (Sprague-Dawley), males, site: liver, lesion: hepatocellular adenoma, dosed 104 weeks, study length 104 weeks): 0.491 mg/kg/day
TD50 (strain Charles River CD (Sprague-Dawley), males, site: liver, lesion: hepatocellular carcinoma, dosed 104 weeks, study length 104 weeks): 0.822 mg/kg/day
TD50 (strain Charles River CD (Sprague-Dawley), males, site: liver, lesion: several types, types named in the paper, dosed 104 weeks, study length 104 weeks): 0.291 mg/kg/day
